Reference: patent publication US7579356B2, “Thia-tetraazaacenaphthylene kinase inhibitors” (Janssen Pharmaceutica NV, priority 2005, dated 2009)
pIC50: −log10 of the molar value.

Tests used:
EGFR = target: T1, EGFR (Homo sapiens, UniProt P00533); assay: EGFR Kinase Assay; assay type: biochemical; conditions: for pIC50: GST-EGFR, ATP 5 μM; for inhibition at 2 µM: test concentration of 2 μM, compounds without an IC50, read-out: EGFR inhibition in percent
T1 construct: The intracellular portion of EGFR started at nucleotide 2189 (corresponding to amino acid 667) and ended at the termination codon; made in house; host or cells: Sf9 insect cells (baculovirus)
T1 sequence (P00533 669-1210 limits assumed): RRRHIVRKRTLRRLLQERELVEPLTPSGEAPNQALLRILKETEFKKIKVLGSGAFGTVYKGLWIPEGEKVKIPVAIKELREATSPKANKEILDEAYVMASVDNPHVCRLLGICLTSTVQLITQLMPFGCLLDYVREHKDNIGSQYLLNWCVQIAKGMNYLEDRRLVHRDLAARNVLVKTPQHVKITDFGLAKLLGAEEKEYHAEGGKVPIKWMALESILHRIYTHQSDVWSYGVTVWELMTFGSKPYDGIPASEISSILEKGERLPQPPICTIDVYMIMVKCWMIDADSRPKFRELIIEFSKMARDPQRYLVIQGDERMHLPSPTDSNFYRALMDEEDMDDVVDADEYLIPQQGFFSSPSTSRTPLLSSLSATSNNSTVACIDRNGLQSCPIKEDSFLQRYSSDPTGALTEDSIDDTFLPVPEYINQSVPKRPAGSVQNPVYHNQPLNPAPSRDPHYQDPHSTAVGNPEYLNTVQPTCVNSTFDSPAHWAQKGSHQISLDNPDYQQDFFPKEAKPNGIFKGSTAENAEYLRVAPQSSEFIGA
Summary of the method: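 GST-fused human EGFR intracellular domain (from aa 667), Sf9-expressed, phosphorylated biotinylated polyGluTyr with 5 μM ATP plus γ-33P ATP in Tris pH 8.0, MgCl2, vanadate, 1 mM DTT, 1 h at 30 °C. Streptavidin Flashplate scintillation read; triplicate 16-point half-log series from 200 uM; IC50 from % inhibition vs log concentration, else % inhibition at 2 μM.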

HER-2 = target: T2, HER-2 (Homo sapiens, UniProt P04626); assay: HER-2 Kinase Assay; assay type: biochemical; conditions: for pIC50: value in parentheses; for inhibition at 1 µM: test concentration of 1 μM
T2 construct: His6 with thrombin site (N); purchased Proqinase (Freiburg, Germany)
T2 sequence (P04626 679-1255): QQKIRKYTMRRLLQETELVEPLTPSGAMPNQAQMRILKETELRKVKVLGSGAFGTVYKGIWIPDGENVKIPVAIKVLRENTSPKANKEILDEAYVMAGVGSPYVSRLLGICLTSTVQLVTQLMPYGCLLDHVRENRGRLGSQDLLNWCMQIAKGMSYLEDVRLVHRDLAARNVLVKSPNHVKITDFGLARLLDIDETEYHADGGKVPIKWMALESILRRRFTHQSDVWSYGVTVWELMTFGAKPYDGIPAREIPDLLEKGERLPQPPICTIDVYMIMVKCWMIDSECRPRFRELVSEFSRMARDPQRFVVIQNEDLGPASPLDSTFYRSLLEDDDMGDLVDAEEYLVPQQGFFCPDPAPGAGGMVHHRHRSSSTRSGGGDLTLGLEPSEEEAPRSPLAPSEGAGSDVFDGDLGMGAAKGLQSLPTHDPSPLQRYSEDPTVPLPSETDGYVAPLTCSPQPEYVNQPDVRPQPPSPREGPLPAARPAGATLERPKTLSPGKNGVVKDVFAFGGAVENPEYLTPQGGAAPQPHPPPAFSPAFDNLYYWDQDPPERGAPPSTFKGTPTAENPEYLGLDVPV
Summary of the method: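 GST/HIS6-tagged HER-2 aa 679–1255 kinase with biotinylated polyGluTyr (1.5 ng/μL), 1 μM ATP plus γ-33P-ATP, Mg2+/Mn2+, DTT, Hepes pH 7.5; 1 h at 30 °C. Substrate phosphorylation captured on streptavidin scintillation plates after EDTA/PBS washes; values are % inhibition at 1 μM or IC50.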

For O=C(Nc1ccc(CN2CCOCC2)cc1)c1sc2ncnc3c2c1NC(=O)N3c1ccc2nc(Cc3cccc(F)c3)[nH]c2c1 [Cpd 193, 5-[2-(3-fluoro-benzyl)-3H-benzoimidazol-5-yl]-4-oxo-4,5-dihydro-3H-1-thia-3,5,6,8-tetraaza-acenaphthylene-2-carboxylic acid (4-morpholin-4-ylmethyl-phenyl)-amide], the pIC50 (EGFR) was 6.15 and the pIC50 (HER-2) was < 6.00.

CC1CCN(Cc2ccc(NC(=O)c3sc4ncnc5c4c3NC(=O)N5c3ccc(Oc4ccccc4)cc3)cc2)CC1 [Cpd 255, 4-oxo-5-(4-phenoxy-phenyl)-4,5-dihydro-3H-1-thia-3,5,6,8-tetraaza-acenaphthylene-2-carboxylic acid [4-(4-methyl-piperidin-1-ylmethyl)-phenyl]-amide] gave a pIC50 (EGFR) of 7.39 and a pIC50 (HER-2) of 7.62.

With COc1ccc(N2C(=O)Nc3c(C(=O)Nc4ccc(OC)c(OC)c4)sc4ncnc2c34)c(F)c1 [Cpd 69, 5-(2-fluoro-4-methoxy-phenyl)-4-oxo-4,5-dihydro-3H-1-thia-3,5,6,8-tetraaza-acenaphthylene-2-carboxylic acid (3,4-dimethoxy-phenyl)-amide] the pIC50 (EGFR) was 6.01 and the inhibition at 1 µM (HER-2) was -3%.

With CN1CCC(NC(=O)c2sc3ncnc4c3c2NC(=O)N4c2ccc(OCc3ccco3)c(Cl)c2)CC1 [Cpd 247, 5-[3-chloro-4-(furan-2-ylmethoxy)-phenyl]-4-oxo-4,5-dihydro-3H-1-thia-3,5,6,8-tetraaza-acenaphthylene-2-carboxylic acid (1-methyl-piperidin-4-yl)-amide] the pIC50 (EGFR) was 6.60 and the pIC50 (HER-2) was 5.93.

C#Cc1cccc(N2C(=O)Nc3c(C(=O)Nc4ccc(CN5CCCC5)cc4)sc4ncnc2c34)c1 [Cpd 15, 5-(3-ethynyl-phenyl)-4-oxo-4,5-dihydro-3H-1-thia-3,5,6,8-tetraaza-acenaphthylene-2-carboxylic acid (4-pyrrolidin-1-ylmethyl-phenyl)-amide] showed a pIC50 (EGFR) of 7.59 and an inhibition at 1 µM (HER-2) of 21%.

Work on COc1ccc(N2C(=O)Nc3c(C(=O)Nc4ccc(CN5CCOCC5)cc4)sc4ncnc2c34)cc1Br [Cpd 181, 5-(3-bromo-4-methoxy-phenyl)-4-oxo-4,5-dihydro-3H-1-thia-3,5,6,8-tetraaza-acenaphthylene-2-carboxylic acid (4-morpholin-4-ylmethyl-phenyl)-amide] yielded a pIC50 (EGFR) of 6.05 and a pIC50 (HER-2) of 5.66.

With CCOC(=O)c1sc2ncnc3c2c1NC(=O)N3c1ccc(OCc2cccs2)c(Cl)c1 [Cpd 223, 5-[3-chloro-4-(thiophen-2-ylmethoxy)-phenyl]-4-oxo-4,5-dihydro-3H-1-thia-3,5,6,8-tetraaza-acenaphthylene-2-carboxylic acid ethyl ester] the inhibition at 2 µM (EGFR) was 5% and the pIC50 (HER-2) was < 4.00.

Compound O=C(Nc1ccc(CN2CCOCC2)cc1)c1sc2ncnc3c2c1NC(=O)N3c1ccc(Br)cc1 [Cpd 196, 5-(4-bromo-phenyl)-4-oxo-4,5-dihydro-3H-1-thia-3,5,6,8-tetraaza-acenaphthylene-2-carboxylic acid (4-morpholin-4-ylmethyl-phenyl)-amide] has a pIC50 (EGFR) of 6.69 and a pIC50 (HER-2) of 6.91.

In the case of COc1ccc(N2C(=O)Nc3c(C(=O)Nc4ccc(CN5CCOCC5)c(OC)c4)sc4ncnc2c34)cc1Br [Cpd 183, 5-(3-bromo-4-methoxy-phenyl)-4-oxo-4,5-dihydro-3H-1-thia-3,5,6,8-tetraaza-acenaphthylene-2-carboxylic acid (3-methoxy-4-morpholin-4-ylmethyl-phenyl)-amide], the pIC50 (EGFR) was 6.38 and the pIC50 (HER-2) was 6.01.

With O=C(Nc1ccc(CN2CCOCC2)c(OC(F)(F)F)c1)c1sc2ncnc3c2c1NC(=O)N3c1ccc(Oc2ccccc2)cc1 [Cpd 239, 4-oxo-5-(4-phenoxy-phenyl)-4,5-dihydro-3H-1-thia-3,5,6,8-tetraaza-acenaphthylene-2-carboxylic acid (4-morpholin-4-ylmethyl-3-trifluoromethoxy-phenyl)-amide] the pIC50 (EGFR) was 6.94 and the pIC50 (HER-2) was 6.38.

For O=C(Nc1ccc(CN2CCCC2)cc1)c1sc2ncnc3c2c1NC(=O)N3c1ccc(F)c(Cl)c1 [Cpd 7, 5-(3-chloro-4-fluoro-phenyl)-4-oxo-4,5-dihydro-3H-1-thia-3,5,6,8-tetraaza-acenaphthylene-2-carboxylic acid (4-pyrrolidin-1-ylmethyl-phenyl)-amide], the pIC50 (EGFR) was 8.15 and the inhibition at 1 µM (HER-2) was 69%.

With O=C(Nc1ccc(CN2CCCCC2)cc1)c1sc2ncnc3c2c1NC(=O)N3c1ccc(Cl)cc1Cl [Cpd 25, 5-(2,4-dichloro-phenyl)-4-oxo-4,5-dihydro-3H-1-thia-3,5,6,8-tetraaza-acenaphthylene-2-carboxylic acid (4-piperidin-1-ylmethyl-phenyl)-amide] the pIC50 (EGFR) was 6.77 and the pIC50 (HER-2) was 6.11.

For O=C(Nc1ccc(CN2CCOCC2)cc1)c1sc2ncnc3c2c1NC(=O)N3c1ccc(Oc2ccccc2)c(Br)c1 [Cpd 187, 5-(3-bromo-4-phenoxy-phenyl)-4-oxo-4,5-dihydro-3H-1-thia-3,5,6,8-tetraaza-acenaphthylene-2-carboxylic acid (4-morpholin-4-ylmethyl-phenyl)-amide], the pIC50 (EGFR) was 6.92 and the pIC50 (HER-2) was 6.61.

With CCOC(=O)C=Cc1ccc(NC(=O)c2sc3ncnc4c3c2NC(=O)N4c2ccc3nc(Cc4cccc(F)c4)[nH]c3c2)cc1 [Cpd 206, 3-[4-({5-[2-(3-fluoro-benzyl)-3H-benzoimidazol-5-yl]-4-oxo-4,5-dihydro-3H-1-thia-3,5,6,8-tetraaza-acenaphthylene-2-carbonyl}-amino)-phenyl]-acrylic acid ethyl ester] the inhibition at 2 µM (EGFR) was 12% and the pIC50 (HER-2) was ~4.00.

O=C(Nc1ccc(CN2CCOCC2)c(C(F)(F)F)c1)c1sc2ncnc3c2c1NC(=O)N3c1ccc(Oc2ccccc2)cc1 [Cpd 231, 4-oxo-5-(4-phenoxy-phenyl)-4,5-dihydro-3H-1-thia-3,5,6,8-tetraaza-acenaphthylene-2-carboxylic acid (4-morpholin-4-ylmethyl-3-trifluoromethyl-phenyl)-amide] was tested, and the pIC50 (EGFR) was 6.50 and the pIC50 (HER-2) was 5.98.

Compound O=C(Nc1ccc(CN2CCOCC2)cc1)c1sc2ncnc3c2c1NC(=O)N3c1ccc(OCc2ccccn2)c(Br)c1 [Cpd 180, 5-[3-bromo-4-(pyridin-2-ylmethoxy)-phenyl]-4-oxo-4,5-dihydro-3H-1-thia-3,5,6,8-tetraaza-acenaphthylene-2-carboxylic acid (4-morpholin-4-ylmethyl-phenyl)-amide] has a pIC50 (EGFR) of 7.02 and a pIC50 (HER-2) of 6.95.

For O=C(Nc1ccc(CCN2CCCCC2)cc1)c1sc2ncnc3c2c1NC(=O)N3c1cccc2ccoc12 [Cpd 251, 5-benzofuran-7-yl-4-oxo-4,5-dihydro-3H-1-thia-3,5,6,8-tetraaza-acenaphthylene-2-carboxylic acid [4-(2-piperidin-1-yl-ethyl)-phenyl]-amide], the pIC50 (EGFR) was 6.85 and the pIC50 (HER-2) was 6.55.

In the case of O=C(Nc1ccc(CN2CCCCC2)cc1)c1sc2ncnc3c2c1NC(=O)N3c1ccc(OCc2cccs2)c(Cl)c1 [Cpd 227, 5-[3-chloro-4-(thiophen-2-ylmethoxy)-phenyl]-4-oxo-4,5-dihydro-3H-1-thia-3,5,6,8-tetraaza-acenaphthylene-2-carboxylic acid (4-piperidin-1-ylmethyl-phenyl)-amide], the pIC50 (EGFR) was 7.72 and the pIC50 (HER-2) was 7.48.

CN1CCN(Cc2ccc(NC(=O)c3sc4ncnc5c4c3NC(=O)N5c3ccc(F)c(Cl)c3)cc2)CC1 [Cpd 14, 5-(3-chloro-4-fluoro-phenyl)-4-oxo-4,5-dihydro-3H-1-thia-3,5,6,8-tetraaza-acenaphthylene-2-carboxylic acid [4-(4-methyl-piperazin-1-ylmethyl)-phenyl]-amide] gave a pIC50 (EGFR) of 7.37 and an inhibition at 1 µM (HER-2) of -1%.

With O=C(Nc1ccc(CN2CCCCC2)cc1)c1sc2ncnc3c2c1NC(=O)N3c1ccc(Br)cc1 [Cpd 195, 5-(4-bromo-phenyl)-4-oxo-4,5-dihydro-3H-1-thia-3,5,6,8-tetraaza-acenaphthylene-2-carboxylic acid (4-piperidin-1-ylmethyl-phenyl)-amide] the pIC50 (EGFR) was 7.01 and the pIC50 (HER-2) was 7.03.

For O=C(Nc1ccc(CN2CCCCC2)cc1)c1sc2ncnc3c2c1NC(=O)N3c1ccc([S+]([O-])c2ccccc2)cc1 (stereo not drawn) [Cpd 205, 5-(4-benzenesulfinyl-phenyl)-4-oxo-4,5-dihydro-3H-1-thia-3,5,6,8-tetraaza-acenaphthylene-2-carboxylic acid (4-piperidin-1-ylmethyl-phenyl)-amide], the pIC50 (EGFR) was 6.16 and the pIC50 (HER-2) was 5.84.

For CCOc1cc(NC(=O)c2sc3ncnc4c3c2NC(=O)N4c2ccc(Oc3ccccc3)cc2)ccc1CN1CCOCC1 [Cpd 207, 4-oxo-5-(4-phenoxy-phenyl)-4,5-dihydro-3H-1-thia-3,5,6,8-tetraaza-acenaphthylene-2-carboxylic acid (3-ethoxy-4-morpholin-4-ylmethyl-phenyl)-amide], the pIC50 (EGFR) was 7.80 and the pIC50 (HER-2) was 7.82.

In the case of CCOC(=O)c1sc2ncnc3c2c1NC(=O)N3c1ccc(Sc2ccccc2)cc1 [Cpd 210, 4-oxo-5-(4-phenylsulfanyl-phenyl)-4,5-dihydro-3H-1-thia-3,5,6,8-tetraaza-acenaphthylene-2-carboxylic acid ethyl ester], the pIC50 (EGFR) was 6.21 and the pIC50 (HER-2) was < 5.00.

In the case of COc1cc(NC(=O)c2sc3ncnc4c3c2NC(=O)N4c2ccc(Sc3ccccc3)cc2)ccc1CN1CCOCC1 [Cpd 219, 4-oxo-5-(4-phenylsulfanyl-phenyl)-4,5-dihydro-3H-1-thia-3,5,6,8-tetraaza-acenaphthylene-2-carboxylic acid (3-methoxy-4-morpholin-4-ylmethyl-phenyl)-amide], the pIC50 (EGFR) was 6.90 and the pIC50 (HER-2) was 7.24.
